This is an account of results in ChEMBL document CHEMBL1201862, “PubChem BioAssay data set” (2004).

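Exposure lasted 48 hours, with cells grown in 96-well plates and compounds tested at five concentrations. GI50 marks 50% less growth.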 The source made the active and inactive calls. Cut-off read from the data, not from the text of the source: active = GI50 up to about 1.1 µM and inactive = higher.

Among the test systems are A498; ACHN; CCRF-CEM; HCT-15; HOP-62; IGROV-1; K562; M14; MOLT-4; Malme-3M; NCI-H226; NCI-H23; OVCAR-8; RPMI-8226; SF-295; SK-MEL-5; SNB-19; TK-10; U-251; UO-31.
Assay in all cases: NCI tumour cell line growth inhibition, 48 h

As to `COc1ccc([C@H]2C=[N+]([O-])O[C@H](OC3CCCC3)[C@@H]2OC(C)=O)cc1OC`, the GI50 in the assay with A498 is > 100 µM (inactive); in the assay with ACHN, 22.2 µM (inactive); in the assay with CCRF-CEM it was 0.098 µM (active); in the assay with HCT-15, 29.2 µM; in the assay with HOP-62 it was 72.1 µM (inactive); with IGROV-1, 18.3 µM (inactive). Moreover, the GI50 with K562 is 39.3 µM (inactive); in the assay with M14, 21.4 µM (inactive); with MOLT-4 it was 32.6 µM (inactive); in the assay on Malme-3M, 25.9 µM (inactive); in the assay with NCI-H226 it was 47.6 µM (inactive); with NCI-H23, 25.6 µM (inactive). In addition, the GI50 in the assay with OVCAR-8 is 20.7 µM (inactive); in the assay on RPMI-8226 it was 23.5 µM (inactive); in the assay with SF-295 it was > 100 µM (inactive); with SK-MEL-5, 13.1 µM (inactive); in the assay with SNB-19, > 100 µM (inactive); in the assay on TK-10, 23.1 µM (inactive). In addition, the GI50 was 35 µM (inactive) in the assay with U-251 and 18.7 µM (inactive) in the assay on UO-31.
Turning to `COc1nc(N)nc2nc[nH]c12`, the GI50 with A498 is 228 µM (inactive); with ACHN, 328 µM (inactive); with CCRF-CEM it was 331 µM (inactive); in the assay with HCT-15 it was 445 µM; in the assay with HOP-62, 172 µM (inactive); with IGROV-1, 239 µM (inactive). The GI50 was > 500 µM (inactive) in the assay on K562; 478 µM (inactive) with M14; 474 µM (inactive) with MOLT-4; 290 µM (inactive) in the assay on Malme-3M; 318 µM (inactive) in the assay with NCI-H226; > 500 µM (inactive) in the assay on NCI-H23. Moreover, the GI50 with OVCAR-8 is > 500 µM (inactive); in the assay with RPMI-8226 it was 417 µM (inactive); with SF-295 it was > 500 µM (inactive); in the assay on SK-MEL-5 it was > 500 µM (inactive); in the assay on SNB-19, > 500 µM (inactive); in the assay with TK-10, 242 µM (inactive). Moreover, the GI50 was 488 µM (inactive) in the assay with U-251 and 239 µM (inactive) in the assay on UO-31.
Consider `CCOC(=O)CC(NC(=O)c1ccc(/N=N/N(C)C)cc1)C(=O)OCC` (stereo not drawn), for which the GI50 is > 100 µM (inactive) in the assay with A498; > 100 µM (inactive) with ACHN; > 100 µM (inactive) in the assay with CCRF-CEM; greater than 100 µM with HCT-15; > 100 µM (inactive) in the assay with HOP-62; > 100 µM (inactive) in the assay on IGROV-1. Also, the GI50 in the assay on K562, in the assay on M14, in the assay with MOLT-4, with Malme-3M, with NCI-H226 and with NCI-H23 was > 100 µM (inactive) in each case. Also, the GI50 in the assay with OVCAR-8, with RPMI-8226, in the assay with SF-295, in the assay on SK-MEL-5, in the assay on SNB-19 and in the assay on TK-10 was > 100 µM (inactive) in each case. Besides, the GI50 with U-251 and in the assay on UO-31 was > 100 µM (inactive) each time.
`Cc1c(Cl)cccc1NC(=O)/C=C/c1ccccc1`: the GI50 with A498 is > 100 µM (inactive); in the assay on ACHN, 89.5 µM (inactive); in the assay on CCRF-CEM it was > 100 µM (inactive); in the assay on HCT-15, greater than 100 µM; in the assay on HOP-62, > 100 µM (inactive); with IGROV-1, > 100 µM (inactive). Besides, the GI50 in the assay on K562 was > 100 µM (inactive); in the assay on M14 it was > 100 µM (inactive); in the assay with MOLT-4, > 100 µM (inactive); in the assay on Malme-3M, > 100 µM (inactive); in the assay on NCI-H226 it was 60.1 µM (inactive); with NCI-H23, > 100 µM (inactive). In addition, the GI50 with OVCAR-8 was 38 µM (inactive); in the assay on RPMI-8226 it was 97.9 µM (inactive); in the assay with SF-295, > 100 µM (inactive); in the assay on SK-MEL-5, > 100 µM (inactive); with SNB-19, 45.6 µM (inactive); in the assay with TK-10, > 100 µM (inactive). For the same molecule, the GI50 with U-251 is > 100 µM (inactive).
As for `O=C(O)CCC(NC(=O)c1ccc(Nc2nc3cc(C(F)(F)F)ccc3nc2C(=O)O)cc1)C(=O)O` (stereo not drawn), the GI50 is > 100 µM (inactive) in the assay with A498; > 100 µM (inactive) in the assay with ACHN; > 100 µM (inactive) with CCRF-CEM; greater than 100 µM in the assay on HCT-15; > 100 µM (inactive) in the assay with HOP-62; > 100 µM (inactive) in the assay with IGROV-1. Further, the GI50 with K562, in the assay on M14, in the assay with MOLT-4, with Malme-3M, in the assay on NCI-H226 and in the assay on NCI-H23 was > 100 µM (inactive) in each case. In addition, the GI50 is > 100 µM (inactive) with OVCAR-8; > 100 µM (inactive) in the assay with RPMI-8226; > 100 µM (inactive) in the assay with SF-295; 79.8 µM (inactive) in the assay with SK-MEL-5; > 100 µM (inactive) in the assay with SNB-19; > 100 µM (inactive) in the assay with TK-10. Besides, the GI50 with U-251 and in the assay with UO-31 was > 100 µM (inactive) throughout.
Regarding `O=C(NNC(=S)NCc1ccccc1)C12CC3CC(CC(C3)C1)C2`, the GI50 in the assay on A498 was > 100 µM (inactive); in the assay with ACHN it was 54.7 µM (inactive); in the assay with CCRF-CEM, 24.3 µM (inactive); in the assay on HCT-15, 53.3 µM; in the assay on HOP-62, 75.2 µM (inactive); in the assay on IGROV-1, > 100 µM (inactive). In addition, the GI50 in the assay on K562 is 55.5 µM (inactive); in the assay with M14, 74.3 µM (inactive); in the assay on MOLT-4, 19.1 µM (inactive); in the assay with Malme-3M, > 100 µM (inactive); in the assay on NCI-H226, > 100 µM (inactive); in the assay on NCI-H23, 74.6 µM (inactive). The GI50 is > 100 µM (inactive) in the assay with OVCAR-8; 45.1 µM (inactive) in the assay on RPMI-8226; 34.4 µM (inactive) in the assay on SF-295; > 100 µM (inactive) in the assay on SNB-19; > 100 µM (inactive) with TK-10; 49.8 µM (inactive) with U-251. In addition, the GI50 in the assay on UO-31 was 50.1 µM (inactive).
`CC1(C)C2CCC3(OCCO3)C1C(O)C2` (stereo not drawn): the GI50 with A498 is > 100 µM (inactive); with ACHN, > 100 µM (inactive); with CCRF-CEM, > 100 µM (inactive); in the assay with HCT-15, greater than 100 µM; in the assay on HOP-62, > 100 µM (inactive); in the assay on IGROV-1, > 100 µM (inactive). The GI50 in the assay on K562, in the assay with M14, with MOLT-4, with Malme-3M, in the assay with NCI-H226 and in the assay with NCI-H23 was > 100 µM (inactive) in each case. For the same molecule, the GI50 with OVCAR-8, in the assay with RPMI-8226, in the assay on SF-295, in the assay with SK-MEL-5, with SNB-19 and in the assay with TK-10 was > 100 µM (inactive) each time. Moreover, the GI50 in the assay on U-251 and with UO-31 was > 100 µM (inactive) throughout.
